Test results from patent US11484032B2, “Compositions for inhibition of insect sensing” (Vanderbilt University, priority 2011, dated 2022).

Key:
AgORco+AgOR10 = biological target: T1, AgORco+AgOR10 (Anopheles gambiae, UniProt Q7QCC7); assay: Fluo-4 Ca2+ imaging, HEK293 cells expressing Orco+AgOR10; type: cell-based; conditions: AgORco+AgOR10 cells; not seen in control cells
T1 construct: expressed in transfected cells
T1 sequence (Q7QCC7 1-478): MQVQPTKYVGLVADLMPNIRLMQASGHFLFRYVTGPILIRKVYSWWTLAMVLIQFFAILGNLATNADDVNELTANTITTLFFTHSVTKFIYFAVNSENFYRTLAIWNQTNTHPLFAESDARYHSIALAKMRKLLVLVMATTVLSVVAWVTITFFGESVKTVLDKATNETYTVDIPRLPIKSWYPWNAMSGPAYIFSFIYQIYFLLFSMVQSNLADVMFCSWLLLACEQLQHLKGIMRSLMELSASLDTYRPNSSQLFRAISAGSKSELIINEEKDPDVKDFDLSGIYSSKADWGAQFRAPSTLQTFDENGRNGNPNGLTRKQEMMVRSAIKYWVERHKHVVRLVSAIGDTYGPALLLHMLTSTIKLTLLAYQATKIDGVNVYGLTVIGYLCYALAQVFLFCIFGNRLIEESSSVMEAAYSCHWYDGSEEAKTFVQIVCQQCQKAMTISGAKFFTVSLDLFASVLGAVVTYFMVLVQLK
Summary of the method: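 Stable Flp-In T-REx 293 lines co-expressing Orco and OR, induced overnight with 0.3 u-g/ul tetracycline, loaded with 1.8 uM Fluo-4 AM plus 2.5 mM probenecid for 45 min at 37 °C. Ca2+ mobilization read after 20 s baseline and compound addition; Max/Min ratios normalized to the maximum responder.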

[1] = biological target: T2, rat transient receptor potential vanilloid 1 (rTRPV1) (Rattus norvegicus, UniProt O35433); assay: Whole-cell patch clamp, HEK cells stably expressing rTRPV1; type: cell-based
T2 construct: expressed in transfected cells
Method: Currents from OR-expressing HEK293 cells were amplified with an Axopatch 200b Amplifier (Axon Instruments) and digitized through a Digidata 1322A (Axon Instruments). Electrophysiological data was recorded and analyzed using pCLAMP 10 (Axon Instruments). Electrodes were fabricated from quartz tubing (Sutter Instruments) and pulled to 4-6 MiΩ for whole cell recording. Electrodes were filled with internal solution (120 mM KCl, 30 mM D-glucose, 10 mM HEPES, 2 mM MgCl2, 1.1 mM EGTA, and 0.1 CaCl2) (pH 7.35, 280 mOsm). External (bath) solution contained 130 mM NaCl, 34 mM D-glucose, 10 mM HEPES, 1.5 mM CaCl2), 1.3 mM KH2PO4, and 0.5 MgSO4 (pH 7.35, 300 mOsm). Compounds were diluted in external solution and locally perfused to the recording cell using Perfusion Pencil (Automate Scientific) and controlled by a ValveLink 8.2 controller (Automate Scientific). Whole cell recordings were sampled at 10 kHz and filtered at 5 kHz. Outside-out patches were obtained using 10-15MΩ electrodes pulled from standard glass capillaries (World Precision Instruments) and fire-polished with an MF-830 micro forge (Narishige). Single channel recordings were sampled at 20 kHz. Recordings were reduced to 1 kHz and low-pass filtered at 500 Hz for display and analysis using QuB (SUNY at Buffalo).

[2] = tested on: CO2 sensitive CpA neuron (does not express AgORco); assay: Single sensillum recording, capitate peg sensilla, CpA neuron; type: in vivo, Anopheles gambiae; conditions: CO2 pulse at completion of assay
Method: Single sensillum recordings were performed on 4-7 day old, non-bloodfed Anopheles gambiae females maintained on 10% sucrose and a 12/12 light dark cycle. Legs, wings and antennae were removed from cold-anesthetized females that were then restrained on double-stick tape with thread. A glass reference electrode filled with Sensillar lymph ringers (SLR)(Xu, 2005) was placed in the eye and the recording electrode filled with DMSO or VUAA1 diluted in SLR was used to puncture sensilla at their base. Responses were recorded and digitized using a Syntech IDAC-4 and analyzed with AutoSpike software (Syntech). New glass recording pipettes were used for every recording. Data was sampled at 12 kHz.
The inventors next performed single unit, extracellular electrophysiological recordings on adult female An. gambiae to determine whether VUAA1 could activate AgORco-expressing odorant receptor neurons (ORNs) in vivo. ORNs, which express AgORco and a conventional OR are enclosed within the hair-like sensilla present on olfactory tissues. […] CpA is clearly distinguished from CpB/C by its large action potential amplitude. The action potential amplitudes of CpB and CpC are much smaller and in some preparations indistinguishable from each other; as a result, the spike activity of CpB and CpC neurons were binned for data analysis. […]

T2 sequence (O35433 whole entry): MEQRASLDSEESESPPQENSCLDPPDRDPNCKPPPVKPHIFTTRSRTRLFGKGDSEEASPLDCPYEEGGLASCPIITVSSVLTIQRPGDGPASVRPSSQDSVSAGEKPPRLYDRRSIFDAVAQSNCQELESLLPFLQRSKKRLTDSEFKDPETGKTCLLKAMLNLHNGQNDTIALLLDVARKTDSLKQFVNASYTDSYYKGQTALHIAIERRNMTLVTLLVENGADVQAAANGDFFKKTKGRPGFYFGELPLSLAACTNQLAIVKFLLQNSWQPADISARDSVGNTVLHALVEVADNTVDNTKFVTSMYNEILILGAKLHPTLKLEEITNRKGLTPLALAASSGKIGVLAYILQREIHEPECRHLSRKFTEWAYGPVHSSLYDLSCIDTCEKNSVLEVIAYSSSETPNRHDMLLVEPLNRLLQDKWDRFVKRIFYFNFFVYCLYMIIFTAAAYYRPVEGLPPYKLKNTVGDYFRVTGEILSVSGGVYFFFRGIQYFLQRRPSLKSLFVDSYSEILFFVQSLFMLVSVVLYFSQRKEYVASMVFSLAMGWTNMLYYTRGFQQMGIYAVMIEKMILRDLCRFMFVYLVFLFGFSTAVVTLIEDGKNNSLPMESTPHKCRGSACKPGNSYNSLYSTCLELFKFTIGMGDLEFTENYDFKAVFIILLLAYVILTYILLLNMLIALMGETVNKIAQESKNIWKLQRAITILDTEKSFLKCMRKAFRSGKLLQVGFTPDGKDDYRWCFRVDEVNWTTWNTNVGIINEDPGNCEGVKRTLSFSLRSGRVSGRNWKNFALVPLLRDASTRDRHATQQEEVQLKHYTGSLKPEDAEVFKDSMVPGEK

For `CCc1ccc(NC(=O)CSc2nnc(-c3cccnc3)n2CC)cc1` [VUAA1, 2-((4-ethyl-5-(pyridin-3-yl)-4H-1,2,4-triazol-3-yl)thio)-N-(4-ethylphenyl)acetamide], the “response in plate-based calcium imaging” value (AgORco+AgOR10) was “concentration-dependent responses”, the whole-cell current response [1] was “did not elicit currents” and the CpA neuron activity [2] was “unchanged”.
